Patent publication US6723699B1, “Treating disorders by application of insulin-like growth factors and analogs” (Cephalon, Inc., priority 1989, dated 2004)

How the values were obtained:
[1] = test system: brain ornithine decarboxylase; test: Induction of brain ornithine decarboxylase after intraventricular injection, adult rats; format: in vivo, rat; settings: 6 hours, cerebral cortex, medial septum, hippocampus
Method: To determine whether the induction of brain ornithine decarboxylase by IGF-I was limited to developing animals, IGF-I was also injected intraventricularly into the lateral ventricles of adult Sprague-Dawley rats. After 6 hours, the brains were removed, dissected into several regions (cerebral cortex, medial septum, and hippocampus), and then assayed for ornithine decarboxylase activity as described in Example 4.

[2] = test system: 125I-[Threonine59]IGF-I binding to brain tissue sections; test: 125I-[Threonine59]IGF-I binding displacement on rat brain tissue sections
Method: Brains were removed intact from adult Sprague-Dawley rats, frozen on powdered dry ice, and cut into 20 μm sections (at the level of the cerebellum and brain stem) which were
thaw-mounted onto gelatin-coated glass microscope slides (Herkenham and Pert, J. Neurosci. 2:1129-1149 (1982)). Using a modification of the method of Bohannon et al. (1986), the tissue sections were covered with 250 μl of HEPES assay buffer (see Example 1) containing 0.01 nM ^125I-[Threonine^59]IGF-I alone or in combination with unlabeled IGF-I, IGF-II, or synthetic peptide fragments thereof. The sections were incubated at 4° C. for 24 hours and then rinsed in three 1-minute changes (200 ml each) of ice-cold HEPES assay buffer. The tissue sections were then wiped off the slides with filter paper, and the tissue-bound radioactivity was measured in a Beckman Model 5500B Gamma Counter.

[3] = test system: fetal rat cortical neuronal cultures; test: Fetal rat cortical neuron survival by [3H]leucine incorporation; format: cell-based
Method: The neuronal survival promoting activity of IGF-I and IGF-II was assayed on fetal rat cortical neuranal cultures. Cerebral cortices were removed from embryonic day 18 fetal rats. Cortices were minced and treated with neutral protease (Dispase, Collaborative Research) to yield dissociated cell preparations. Cells were plated at low density (5×10^3 cells/well) onto poly-L-ornithine and laminin coated ½ area 96 well plates in 50 μl of serum and insulin-free N2 medium containing 0.05% BSA and 50 μM leucine. IGF-I or II were present from time of seeding. Control cultures received no growth factor. Cultures were incubated for 24 hr at 37° C. in an atmosphere of 5% CO2, 95% air. After 24 hrs, [^3H]leucine was added in an additional 50 μl of modified N2 medium to a final concentration of 12.5 μCi/ml. Twenty-four hours after the addition of [^3H]leucine, cultures were harvested, protein precipitated on filters with 10% trichloroacetic acid, and dried filters counted in a liquid scintillation counter. The incorporation of [^3H]leucine into cells is an accurate reflection of cell survival, since incorporated [^3H]leucine counts correlated directly with the number of surviving cells as measured by microscopic counts of cells in identical cultures.

[4] = test system: cultured rat cortical cells; test: [3H]-leucine incorporation in cultured rat cortical cells; format: cell-based; settings: low density 24 hour mixed cortical cultures
Method: The ability of IGF-I and a synthetic derivative of IGF-II (IGF-II(54-67)) to increase the incorporation of [^3H]-leucine and to promote the survival of neurite bearing cells was examined in cultured rat cortical cells (the numbers “54-67” in IGF-II indicate the fragment includes amino acid residues 54-67 of native IGF-II).
Measurements were performed, using standard techniques known to those skilled in the art, on dissociated cortical cells obtained from day 18-19 embryonic rats. Cells were seeded at 1.5×10^4/cm^2 on poly-1-ornithine-laminin coated plastic tissue culture cells in serum-free N2 medium (Bottenstein et al. Proc. Natl. Acad. Sci. U.S.A. 76: 514-517 (1978)). [^3H]-leucine was added to cells at plating for the incorporation assay. Cultures were terminated 24 hours after plating and measured for either [^3H]-leucine incorporation or for the number of neuritic cells by microscopic examination.

[5] = test system: cultured rat septal cells; test: ChAT activity in cultured rat septal cells; format: cell-based
Method: The effect of simultaneous administration of IGF-I and NGF on ChAT activity was assayed in cultured septal neurons. ChAT is the initial enzyme in the synthesis of the neurotransmitter, acetylcholine, and is a specific biochemical marker for cholinergic neurons. Assay of this enzyme may be used as an indication of the effects of IGF (and other factors) on the survival of cholinergic neurons and/or regulation of this enzyme. […] In FIG. 9 open squares represent IGF-I, diamonds indicate IGF-I+2 nM NGF, open circles indicate 2 nM NGF, and the horizontal line at 403 DPM represents uninduced cells. A similar additive effect was seen when saturating concentrations of IGF-I were combined with saturating or sub-maximal concentrations of NGF, as shown in FIG. 10. In FIG. 10 open squares indicate NGF, diamonds indicate NGF+25 nM IGF-I, open circles represent 25 nM IGF-I, and the horizontal line at 554 DPM represents uninduced cells.
Cultured rat septal cell experiments were performed generally as described in Hartikku and Hefti, J. Neuroscience, 8:2967-2985 […], Hayashi and Patel, Dev. Brain Res., 36:109-120 (1987), and as follows.
Dissociated cell cultures of the septal region of day 17 embryonic rats were prepared by standard techniques known to those skilled in the art, using enzymatic (Dispase, Collaborative Research) dissociation of tissue. Cells were seeded (plated) at 6×10^5 cells/cm^2 in poly-1-ornithine-laminin coated plastic tissue culture wells, and cultured in serum-free N2 medium (Bottenstein et al., 1978) for 5 days without feeding. Control (uninduced) cultures received no added growth factors; induced cultures received the concentrations of IGF-I and NGF indicated in FIGS. 9 and 10 at the time of plating. NGF is commercially available. ChAT was assayed by the method described in McManaman, et al. Dev. Biol. 125:311-320 (1988). AChE staining was performed according to the method of Hartikka and Hefti, J. Neuroscience 8:2967-2985 (1988).

Q: For “GPETLCGAELVDALQFVCGDRGFYFNKPTGYGSSS-RRAPQTGIVDECCFRSCDLRRLEMYCAPLKPAKSA [IGF-I]”, which “ornithine decarboxylase activity (in words)” value [1] is on record?
A: Its value is “stimulated ornithine decarboxylase activity in all brain regions assayed”.

Q: What about the “PERCENT MAX. BOUND” value ([2]; peptide 4 pM, 0.01 nM 125I-[Thr59]IGF-I) of the same substance?
A: The value was 91%.

Q: What about the “PERCENT MAX. BOUND” value ([2]; peptide 400 pM) of the same substance?
A: The value was 30%.

Q: What about the “displacement of 125I-[Threonine59]IGF-I binding (in words)” value ([2]; rat brain sections) of the same substance?
A: Its value is “potently displaced”.

Q: What about the “relative potency in promoting survival of cortical neurons (in words)” value ([3]; IGF-I versus IGF-II) of the same substance?
A: The value was “slightly more potent”.

Q: And the “survival of cortical neurons (in words)” value ([3]; [3H]leucine incorporation, 48 hr)?
A: Its value is “promoted the survival of cortical neurons”.

Q: And the “[3H]-leucine incorporation (in words)” value [4]?
A: The value was “increased [^3H]-leucine incorporation”.

Q: And the “ChAT activity % increase over control” value ([5]; concentration not printed (second part of table))?
A: The value was 44%.

Q: And the “ChAT activity % increase over control” value ([5]; single growth factor 1.3 nM)?
A: The value was 20%.

Q: What about the “ChAT activity % increase over control” value ([5]; single growth factor 12.5 nM) of the same substance?
A: Its value is 50%.

Q: And the “ChAT activity % increase over control” value ([5]; single growth factor 25.0 nM)?
A: The value was 37%.
